Patent US8598120B2 (Amylin Pharmaceuticals, LLC, priority 2004, dated 2013)
Square brackets hold non-standard residues; d marks the D form. Ends that are not written are not given here. * marks the point of attachment. Pentanoyl(4-Me) = CC(C)CCC(=O)*; Orn = NCCC[C@H](N)C(=O)O; Aib = CC(C)(N)C(=O)O

Assay: Food intake assay in overnight fasted mice
Format: in vivo
Settings: 25 nmol/kg intraperitoneal
Experimental: Female NIH/Swiss mice (8-14 weeks old) were group housed with a 12:12 hour light:dark cycle. Water and a standard pelleted mouse chow diet are available ad libitum, except as noted. Animals are fasted starting at approximately 1500 hrs, 1 day prior to experiment.
The effects of treatment on food intake are expressed as % change relative to control.

Question: Which “cumulative food intake compared to vehicle, 30 min” value does the source give for “KCNTATCVLGRLSQELHRLQTMPRTNTGSNTY [Compound 99]” here?
Answer: −57%

Question: And the “cumulative food intake compared to vehicle, 60 min” value?
Answer: −55%

Question: What about the “cumulative food intake compared to vehicle, 120 min” value of the same substance?
Answer: −50%

Question: What does the source list for “KCNTATCVLGRLAEFLHRLQTYPRTNTGSNTY [Compound 104]”?
Answer: cumulative food intake compared to vehicle, 30 min: −69%; cumulative food intake compared to vehicle, 60 min: −67%; cumulative food intake compared to vehicle, 120 min: −54%

Question: Which “cumulative food intake compared to vehicle, 30 min” value does the source give for “KCNTATCVLGRLSQELHRLQTYPRTNTGSGTP [Compound 25]” here?
Answer: −29%

Question: And the “cumulative food intake compared to vehicle, 60 min” value?
Answer: −34%

Question: And the “cumulative food intake compared to vehicle, 120 min” value?
Answer: −45%

Question: Which “cumulative food intake compared to vehicle, 30 min” value does the source give for “CSNLSACVLGRLSQELHRLQTYPRTNTGSNTY [Compound 23]” here?
Answer: 8%

Question: What about the “cumulative food intake compared to vehicle, 60 min” value of the same substance?
Answer: 0%

Question: And the “cumulative food intake compared to vehicle, 120 min” value?
Answer: −19%

Question: And the “cumulative food intake compared to vehicle, 180 min” value (180 min)?
Answer: −12%

Question: Which results are given for “KCNTATCVLGRLSRSLHRLQTYPRTNTGSNTY [Compound 86]”?
Answer: cumulative food intake compared to vehicle, 30 min: −44%; cumulative food intake compared to vehicle, 60 min: −26%; cumulative food intake compared to vehicle, 120 min: −16%

Question: Which results are given for “KCNTATCVLG(homoK)LSQELH(homoK)LQTYPRTNTGSNTY [Compound 63]”?
Answer: cumulative food intake compared to vehicle, 30 min: −19%; cumulative food intake compared to vehicle, 60 min: −22%; cumulative food intake compared to vehicle, 120 min: −28%

Question: What does the source list for “KCNTSTCVLGRLSQELHRLQTYPRTNTGSNTY [Compound 50]”?
Answer: cumulative food intake compared to vehicle, 30 min: −70%; cumulative food intake compared to vehicle, 60 min: −62%; cumulative food intake compared to vehicle, 120 min: −48%

Question: What does the source list for “KCNTATCVLG(homoR)LSQELH(homoR)LQTYPRTNTGSNTY [Compound 74]”?
Answer: cumulative food intake compared to vehicle, 30 min: −42%; cumulative food intake compared to vehicle, 60 min: −32%; cumulative food intake compared to vehicle, 120 min: −31%

Question: What does the source list for “KCNTATCATQRLSQELHRLQTYPRTNTGSNTY [Compound 51]”?
Answer: cumulative food intake compared to vehicle, 30 min: −44%; cumulative food intake compared to vehicle, 60 min: −39%; cumulative food intake compared to vehicle, 120 min: −35%

Question: With “KCNTATCVLGRLSQELH[Orn]LQTYPRTNTGSNTY (cysteine pairing not given here) [Compound 77]” as the substance, how does the “cumulative food intake compared to vehicle, 30 min” value read?
Answer: −46%

Question: And the “cumulative food intake compared to vehicle, 60 min” value?
Answer: −43%

Question: And the “cumulative food intake compared to vehicle, 120 min” value?
Answer: −44%

Question: For “Isocaproyl-STAVL(Aib)RLSQELRLQTYPRTNTGSGTP ({Pentanoyl(4-Me)}-STAVL[Aib]RLSQELRLQTYPRTNTGSGTP-NH2; SMILES CC(C)CCC(=O)N[C@@H](CO)C(=O)N[C@H](C(=O)N[C@@H](C)C(=O)N[C@H](C(=O)N[C@@H](CC(C)C)C(=O)NC(C)(C)C(=O)N[C@@H](CCCNC(=N)N)C(=O)N[C@@H](CC(C)C)C(=O)N[C@@H](CO)C(=O)N[C@@H](CCC(N)=O)C(=O)N[C@@H](CCC(=O)O)C(=O)N[C@@H](CC(C)C)C(=O)N[C@@H](CCCNC(=N)N)C(=O)N[C@@H](CC(C)C)C(=O)N[C@@H](CCC(N)=O)C(=O)N[C@H](C(=O)N[C@@H](Cc1ccc(O)cc1)C(=O)N1CCC[C@H]1C(=O)N[C@@H](CCCNC(=N)N)C(=O)N[C@H](C(=O)N[C@@H](CC(N)=O)C(=O)N[C@H](C(=O)NCC(=O)N[C@@H](CO)C(=O)NCC(=O)N[C@H](C(=O)N1CCC[C@H]1C(N)=O)[C@@H](C)O)[C@@H](C)O)[C@@H](C)O)[C@@H](C)O)C(C)C)[C@@H](C)O) [Compound 29]”, which “cumulative food intake compared to vehicle, 30 min” value is on record?
Answer: 4%

Question: What about the “cumulative food intake compared to vehicle, 60 min” value of the same substance?
Answer: −1%

Question: And the “cumulative food intake compared to vehicle, 120 min” value?
Answer: −25%

Question: Which results are given for “KCNTATCVLGRLSQELHRLQTVPRTNTGSNTY [Compound 100]”?
Answer: cumulative food intake compared to vehicle, 30 min: −60%; cumulative food intake compared to vehicle, 60 min: −52%; cumulative food intake compared to vehicle, 120 min: −41%

Question: For “KCNTATCVLGRLTDYLHRLQTYPRTNTGSNTY [Compound 105]”, which “cumulative food intake compared to vehicle, 30 min” value is on record?
Answer: −83%

Question: What about the “cumulative food intake compared to vehicle, 60 min” value of the same substance?
Answer: −82%

Question: And the “cumulative food intake compared to vehicle, 120 min” value?
Answer: −52%

Question: With “KCNTATCVLG[Orn]LSQELH[Orn]LQTYPRTNTGSNTY (cysteine pairing not given here) [Compound 61]” as the substance, how does the “cumulative food intake compared to vehicle, 30 min” value read?
Answer: −23%

Question: And the “cumulative food intake compared to vehicle, 60 min” value?
Answer: −27%

Question: What about the “cumulative food intake compared to vehicle, 120 min” value of the same substance?
Answer: −32%
